We go through one substance from US8933031B2, “Polypeptide inhibiting angiogenesis and application thereof” (Shanghai First People's Hospital, priority 2008, dated 2015).

Series [1] relates to chick embryo chorioallantoic membrane. The format is in vivo. The settings on record: 10 μg or 50 μg AU6 on filter paper, 2 days, vs PBS control group. The procedure:
1.2 Preparation of Model and Intervention Test: The chick fertile eggs of 1-2 days old were randomly grouped into 3 groups, which were respectively a control group, a 10 μg AU6 intervention group, and a 50 μg AU6 intervention group, with 9-15 eggs for each group. The surface of the fertile eggs was cleansing with tap water, and then the eggs were soaked in 0.2% benzalkonium bromide (bromo-geramine) solution for 5-10 minutes. The eggs were placed with the blunt end upward, and hatched in an incubator under 37° C. and 60-70% humidity. The eggs were overturned for at least two times per day, and were hatched for 5 days with 24 hours as one day. Under sterile condition, a small hole of about 1-2cm^2 was created at the blunt end (air chamber end) with a nipper. […] Whatman filter papers with a diameter of 5mm were used as a sample carrier, each of which adsorbed 5 μl of PBS solution containing 0 μg, 10 μg or 50 μg of AU6. After air drying, the papers were placed into the center of the chorioallantoic membrane. […]
1.3 Counting the Number of Micrangiums in the Chorioallantoic Membrane: the adhesive tape was removed, and the micrangiums newly generated on the chorioallantoic membrane were observed. The number of micrangiums (with diameter no greater than 10 μm) within 5 mm around the filter paper for each group was counted under stereomicroscope. […]

The subject of series [2] is retinal neovascularization induced by anoxia. The format is in vivo. The settings on record: intravitreal AU6 (5 μg, 10 μg) 12 days after birth, read 17 days after birth, vs model-treated group. The procedure:
1.1 Materials and Main Devices: Healthy, neonatal C57B1/6 mice, 7 days age, weighing about 4 g were purchased from Laboratory Animal Center of Chinese Academy of Sciences. The sex of the mice was not limited. FITC-dextran (molecular weight about 2*10^6) was purchased from SIGMA, USA.
1.2 Preparation of Model and Intervention Test: Neonatal mice of 10 nests were randomly grouped into 5 groups, which respectively were oxygen group, oxygen plus PBS group, oxygen plus 5 μg AU6 group, oxygen plus 10 μg AU6 group, and control group, with 10-11 mice for each group. Seven days after birth, except the control group, all of the other groups of mice were placed in an airproof drying cabinet together with their mother mice of the same nest. Wet pure oxygen was introduced into the drying cabinet, and the oxygen concentration in volume was maintained as 75%±5%. The oxygen concentration was measured every 3-6 hours by using oxygen meter. The control group was incubated normally in air. Twelve days after birth, 0.5 μl PBS solution containing respectively 0, 5 μg, and 10 μg AU6 were injected into the vitreous chambers of the mice in the oxygen plus PBS group and in the oxygen plus AU6 group (5 μg, and 10 μg).
1.3 FITC-dextran Retinal Angiography and Flat-mounts: Seventeen days after birth, 50 mg/ml FITC-dextran solution were perfused into the left ventricle of mice in each group. Then the eyeballs immediately were obtained, fixed in paraformaldehyde solution for 5-24 hours at 4° C. And then the retinas were isolated and flat-mounted. The morphological change of the retinal blood vessel was observed under fluorescence microscope.
1.4 Quantitative Measurement of Retinal Neovascularization: The animals in each group were sacrificed by excessive anaesthesia 17 days after birth. The eyeballs were obtained, and fixed in 10% neutral formaldehyde, and then subjected to histopathological examination. […] The numbers of the nucleus of the vascular endothelial cells which broke through the retinal inner limiting membrane were counted under light microscope. […]

Series [3] is described as follows: Water solubility of synthesized polypeptide. The series is classed as physicochemical. The settings on record: white powder.
The subject of series [4] is corneal angiogenesis induced by VEGF. The format is in vivo. From the text: 1.2 Experimental Animal and Material: Healthy, male C57B1/6 mice of 5-6 weeks old weighing about 20 g were purchased from Laboratory Animal Center of Chinese Academy of Sciences. Sucrose octasulfate-aluminum complex was purchased from Sigma-Aldrich, USA. PolyHEMA (poly(2-hydroxyethylmethacylate)) was purchased from Aldrich, USA. And human recombinant VEGF165 was purchased from SIGMA, USA.
1.2 Preparation of Model and Intervention Test: 12% PolyHEMA in an ethanol solution was mixed with an equal volume of normal saline solution containing sucrose octasulfate-aluminum complex powder, thus forming blank slow-release particles with a volume of 0.35 mm*0.35 mm*0.20 mm. 160 ng of VEGF and different amounts (0 μg, 1.0 μg, 2.0 μg) of the small peptides were added into said particles. The resultant products were stored at −20° C., ready for use. The above operations were done under a sterile condition. Thirty C57B1/6 mice (30 eyes) were randomly grouped into a control group (VEGF group), VEGF+1.0 μg AU6 group, and VEGF+2.0 μg AU6 group, with 10 eyes for each group. Under a sterile condition, 23G syringe needle was used to perform blunt separation between the layers of the corneal stroma in the experimental eyes, so as to form a pouch of 0.5 mm*0.5 mm. The particles containing 160 ng VEGF and different amounts of small peptides were implanted into the pouches in the ocular cornea in the mice of each group, and were made to have a distance of 0.6-0.8 mm from limbus. After operation, 0.5% aureomycin oculentum was applied to the eyes to prevent infection and reduce irritation. Photos were obtained 7 days after operation to observe the growth of newly generated blood vessel in the cornea, and a histopathological examination was performed concurrently.
1.3 Quantitative Measurement of Corneal Neovascularization: the length of the new blood vessels grown from limbus was measured 7 days after operation. The area of the new blood vessel was calculated based on the longest blood vessel which had less continuous bending and which grew toward the slow release particles. Formula is as follows: Area (mm^2)=[…]*π*VL (mm)*CN*0.4 (mm), wherein VL is the length of the longest new blood vessel grown from limbus to the cornea (maximal vessel length), and CN represents the clock hours of corneal neovascularization (the cornea is dividing into clock hours).
1.4 Qualitative Observation of Corneal Neovascularization: Each group of animals was sacrificed by excessive anaesthesia 7 days after operation. The eyeballs were obtained under a sterile condition, and fixed in 10% neutral formaldehyde, and then subjected to histopathological examination. The samples were embedded within paraffin and cut into 3 μm sections, HE stained, and observed under light microscope.
1.5 Statistical Analysis: The experimental data were represented as x±s. The length of the longest new blood vessel in cornea, clock hours and area for each group were compared by one-way ANOVA. P<0.05 indicates statistical significance.

Setting [5] is: 160 ng VEGF + 1.0 or 2.0 μg AU6 slow-release particles, 7 days after operation, vs control group.
The mark [6] stands for this setting: 7 days after operation, AU6 intervention group.

With “YRGKKA ((1)..(6) Peptide AU6 for inhibiting angiogenesis)”, the “numbers of micrangiums within 5 mm around the filter paper” value in series [1] is recorded as “significantly less”. Moreover, in series [2], the “neovascular clusters (FITC-dextran retinal flat-mounts)” value is “reduced”, the “non-perfusion area (FITC-dextran retinal flat-mounts)” value is “narrowed” and the “nucleus of vascular endothelial cells which broke through the inner limiting membrane” value is “obviously less”. Further, the water solubility entry in series [3] is listed as “good”. Also, in series [4] (setting [5]), the “clock hours of corneal neovascularization” value was “significant decrease” and the “longest blood vessel length of the new blood vessel” value is “significant decrease”. In addition, in series [4] (160 ng VEGF + 1.0 or 2.0 μg AU6 slow-release particles, 7 days after operation, vs control group, calculated from VL and CN), the “area of blood vessel” value is “significant decrease”. In series [4] (setting [6]), the “blood capillary lumens in corneal stroma (HE stained sections)” value is “very few” and the “oedema in the corneal tissue (HE stained sections)” value is “no obvious oedema”. The “toxicity to each layer of corneal tissues” value in series [4] (mouse, in vivo) is listed as “not observed”.
